Measured values from publication PMC8228819, “Comparison of a Short Linear Antimicrobial Peptide with Its Disulfide-Cyclized and Cyclotide-Grafted Variants against Clinically Relevant Pathogens” (Microorganisms, 2021).
In brackets after ≈: the same amount, converted by molar mass. Where two headings read alike, the source gives them in different places. Marks after values point to notes of the source that are not given here. Bridge positions count the residues as written; N and C are the ends. Square brackets hold non-standard residues; d marks the D form. Ends that are not written are not given here. Peptide text beside a SMILES is read from it. βAla = NCCC(=O)O

Tests used:
[1] = tested on: Klebsiella pneumoniae, clinical isolate from St George's, University of London; type: cell-based
Procedure: (§1) The following strains were used in this study: Escherichia coli, ATCC 25922, Staphylococcus aureus, epidemic methicillin-resistant EMRSA-15, Klebsiella pneumoniae, clinical isolate from St George’s, University of London (SGUL, London, UK), Acinetobacter baumannii, clinical isolate from SGUL, Pseudomonas aeruginosa, PA01 wildtype strain, and Enterococcus faecalis, vancomycin-resistant ATCC 51299.
(§2) The minimal inhibitory concentration (MIC) was determined in a microdilution assay using Mueller–Hinton (MH) or Brain Heart Infusion Broth (BHI) broth following a previously published protocol. Briefly, a twofold serial dilution of the antibiotics and peptides were prepared and added to a bacteria solution, resulting in 2–5 10^5 CFU/mL. The microtiter plates (polypropylene, Corning, Corning, NY, USA) were incubated for 18 h at 37 °C and MICs were taken visually. Based on our experience with proline rich peptides, their low activity in Mueller–Hinton broth, and their strong activity in diluted broth, we decided to also measure the activity of the peptide set in a 1/5 dilution of the broth. MICs in the presence of serum were established using human serum (Zen-Bio, Durham, NC, USA) and heat-inactivated serum (Sigma-Aldrich, St. Louis, MO, USA). A total of 20% (v/v) of each human serum was mixed with bacterial solution and added to predetermined concentrations of antibiotics and peptides, resulting in a final 10% (v/v) concentration of serum and 2–5 × 10^5 bacteria.

[2] = tested on: Staphylococcus aureus, epidemic methicillin-resistant EMRSA-15; type: cell-based; conditions: triplicate, modal value
Procedure: as §1, §2

[3] = tested on: Enterococcus faecalis, vancomycin-resistant ATCC 51299; type: cell-based
Procedure: as §1, §2

[4] = pH stability; type: physicochemical; conditions: 20 μM, pH 1.2 and 7.5, 24 h, UPLC
Procedure: (§3) Serum stability assays were performed in 100% human serum (Sigma-Aldrich, St. Louis MO, USA, human male AB plasma). Serum was centrifuged to remove lipids and incubated with the peptides at 100 μM for 0, 0.5, 1, 3, 6, and 24 h at 37 °C. Serum proteins were precipitated by adding 3 μL of TFA to 40 μL of peptide – serum sample (final TFA 7%). The remaining supernatant was diluted with 50:50 solvent A/B. The amount of peptide remaining (%) was quantified by UPLC-MS analysis. For pH stability experiments, peptides were incubated at a concentration of 20 μM at pH 1.2 and 7.5 for 24 h, and stability was monitored by UPLC analysis.

[5] = Serum stability assay; type: in vitro ADME, human; conditions: 37 °C, UPLC-MS; for half-life at 100 μM: 100% human serum (Sigma-Aldrich, human male AB plasma), 100 μM peptide, 0-24 h, TFA precipitation, triplicates; for Peptide state after one hour in human serum: 100% human serum, 100 μM, 1 h
Procedure: as §3

[6] = tested on: Escherichia coli, ATCC 25922; type: cell-based; conditions: triplicate, modal value
Procedure: as §1, §2

[7] = tested on: Acinetobacter baumannii, clinical isolate from SGUL; type: cell-based; conditions: triplicate, modal value
Procedure: as §1, §2

[8] = tested on: Pseudomonas aeruginosa, PA01 wildtype strain; type: cell-based; conditions: triplicate, modal value
Procedure: as §1, §2

[9] = tested on: S. enterica serovar Typhimurium LT2; conditions: cited from earlier work
Source text: (§4) Several naturally occurring cyclotide sequences have been proposed to have antimicrobial activity. However, the cyclotides tested in that study were synthetically made and had rather weak activity against a range of common pathogenic bacteria, including Escherichia coli and Staphylococcus aureus, but were only active in low salt media, losing all activity under physiological conditions. A number of other studies have also reported antibacterial activity for some natural cyclotides or synthetic derivatives of them. For example, fractions comprised of cyclotid ...

[10] = tested on: E. coli; conditions: cited from earlier work
Source text: as §4

[11] = tested on: Staphylococcus aureus; conditions: cited from earlier work
Source text: as §4

[12] = 1/5 MH + 10% heat inactivated human serum

KRRVRWIIW-NH2 [optP7]
MIC ([1]; clinical isolate from St George's, University of London, 18 h): 1.5 µM
MIC [2, 12]: 6 µM
MIC ([2]; 1/5 MH + 10% human serum): 6 µM
MIC ([2]; 1/5 MH): 1.5 µM
MIC ([2]; MH + 10% human serum): 49 µM
MIC ([2]; MH): 6 µM
MIC ([3]; ATCC 51299, 18 h): 0.8 µM
pH stability [4]: exceptional stability over 24 h
half-life at 100 μM [5]: 13 min
Peptide state after one hour in human serum [5]: fully degraded

CC[C@H](C)[C@@H]1NC(=O)[C@H](Cc2c[nH]c3ccccc23)NC(=O)[C@H](CCCNC(=N)N)NC(=O)[C@H](C(C)C)NC(=O)[C@H](CCCNC(=N)N)NC(=O)[C@H](CCCNC(=N)N)NC(=O)[C@H](CCCCN)NC(=O)CCNC(=O)CCNC(=O)[C@@H](N)CSSC[C@@H](C(=O)O)NC(=O)CCNC(=O)CCNC(=O)[C@H](Cc2c[nH]c3ccccc23)NC(=O)[C@H]([C@@H](C)CC)NC1=O [c-optP7] (H-C[βAla][βAla]KRRVRWIIW[βAla][βAla]C-OH; disulfide 1-15)
MIC [6, 12]: 35 µM
MIC ([6]; 1/5 MH + 10% human serum): 18 µM
MIC ([6]; 1/5 MH): 4 to 9 µM
MIC ([6]; MH + 10% human serum): >142 µM
MIC ([6]; MH): 71 µM (≈ 128 µg/mL)
MIC ([7]; 1/5 MH + 10% human serum): 71 µM
MIC ([7]; 1/5 MH): 4 µM (≈ 7.2 µg/mL)
MIC ([1]; 1/5 MH + 10% human serum, triplicate, modal value): 142 µM
MIC ([1]; 1/5 MH, triplicate, modal value): 71 µM (≈ 128 µg/mL)
MIC ([1]; MH, single measurement (asterisk)): >142 * µM
MIC [2, 12]: >142 µM
MIC ([2]; 1/5 MH + 10% human serum): >142 µM
MIC ([2]; 1/5 MH): 18 µM (≈ 32.4 µg/mL)
MIC ([2]; MH + 10% human serum): >142 µM
MIC ([2]; MH): 142 µM (≈ 256 µg/mL)
MIC ([3]; 1/5 BHI + 10% human serum, triplicate, modal value): >142 µM
MIC ([3]; 1/5 BHI, triplicate, modal value): 18 µM (≈ 32.4 µg/mL)
MIC ([3]; BHI, single measurement (asterisk)): >142 * µM
MIC ([8]; 1/5 MH + 10% human serum): 35 µM
MIC ([8]; 1/5 MH): 9 µM (≈ 16.2 µg/mL)
MIC ([8]; MH + 10% human serum): >142 µM
MIC ([8]; MH, microdilution, 18 h 37 °C, visual): 142 µM (≈ 256 µg/mL)
pH stability [4]: exceptional stability over 24 h
half-life at 100 μM [5]: 9 min
Peptide state after one hour in human serum [5]: fully degraded

cycloviolacin O2
MIC [9]: ~9 µM
MIC [10]: 2 µM
MIC [11]: > 50 µM
